From PubChem BioAssay (NCI)
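These data come from cells grown in 96-well plates and exposed to compound for 48 hours at five concentrations. GI50 marks 50% less growth. TGI marks complete inhibition of growth.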

Legend:
Experiment in all cases: growth of human tumour cells (NCI), 48 h
NCI/ADR-RES ovarian = test system: NCI/ADR-RES ovarian
CCRF-CEM leukemia = test system: CCRF-CEM leukemia
SF-539 CNS = test system: SF-539 CNS
M14 melanoma = test system: M14 melanoma
CAKI-1 renal = test system: CAKI-1 renal
COLO 205 colon = test system: COLO 205 colon
HL-60(TB) leukemia = test system: HL-60(TB) leukemia
ACHN renal = test system: ACHN renal
HCT-116 colon = test system: HCT-116 colon
PC-3 prostate = test system: PC-3 prostate
OVCAR-4 ovarian = test system: OVCAR-4 ovarian
SR leukemia = test system: SR leukemia
786-0 renal = test system: 786-0 renal
SK-MEL-2 melanoma = test system: SK-MEL-2 melanoma
UACC-62 melanoma = test system: UACC-62 melanoma
HT29 colon = test system: HT29 colon
OVCAR-5 ovarian = test system: OVCAR-5 ovarian
NCI-H226 lung = test system: NCI-H226 lung
NCI-H23 lung = test system: NCI-H23 lung
A549 NSCLC = test system: A549 NSCLC
SK-MEL-28 melanoma = test system: SK-MEL-28 melanoma
SK-MEL-5 melanoma = test system: SK-MEL-5 melanoma
EKVX NSCLC = test system: EKVX NSCLC
U251 CNS = test system: U251 CNS
UO-31 renal = test system: UO-31 renal
HS 578T breast = test system: HS 578T breast
A498 renal = test system: A498 renal
OVCAR-3 ovarian = test system: OVCAR-3 ovarian
LOX IMVI melanoma = test system: LOX IMVI melanoma
MDA-MB-231 breast = test system: MDA-MB-231 breast
TK-10 renal = test system: TK-10 renal
HOP-92 NSCLC = test system: HOP-92 NSCLC
UACC-257 melanoma = test system: UACC-257 melanoma
HCC-2998 colon = test system: HCC-2998 colon
MCF7 breast = test system: MCF7 breast
DU-145 prostate = test system: DU-145 prostate
MALME-3M melanoma = test system: MALME-3M melanoma
KM12 colon = test system: KM12 colon
OVCAR-8 ovarian = test system: OVCAR-8 ovarian
SF-295 CNS = test system: SF-295 CNS
NCI-H522 lung = test system: NCI-H522 lung
SF-268 CNS = test system: SF-268 CNS
MDA-MB-435 = test system: MDA-MB-435
RXF 393 renal = test system: RXF 393 renal
SN12C renal = test system: SN12C renal
RPMI-8226 leukemia = test system: RPMI-8226 leukemia
HOP-62 NSCLC = test system: HOP-62 NSCLC
SW-620 colon = test system: SW-620 colon
HCT-15 colon = test system: HCT-15 colon
SNB-19 CNS = test system: SNB-19 CNS
BT-549 breast = test system: BT-549 breast
MOLT-4 leukemia = test system: MOLT-4 leukemia
T-47D breast = test system: T-47D breast

CCOc1ccc2c(c1)C(=O)c1c-2n(CCCN)c(=O)c2cc([N+](=O)[O-])ccc12
GI50 (NCI/ADR-RES ovarian): 55.8 nM | TGI (NCI/ADR-RES ovarian): 1820 nM | GI50 (CCRF-CEM leukemia): < 10 nM | TGI (CCRF-CEM leukemia): 20.8 nM | GI50 (SF-539 CNS): 51.7 nM | TGI (SF-539 CNS): 209 nM | GI50 (M14 melanoma): 34.3 nM | TGI (M14 melanoma): 1190 nM | GI50 (CAKI-1 renal): 11.2 nM | TGI (CAKI-1 renal): 1140 nM | GI50 (COLO 205 colon): 361 nM | TGI (COLO 205 colon): 2110 nM | GI50 (HL-60(TB) leukemia): 314 nM | TGI (HL-60(TB) leukemia): 2400 nM | GI50 (ACHN renal): 10.1 nM | TGI (ACHN renal): 1170 nM | GI50 (HCT-116 colon): 63.8 nM | TGI (HCT-116 colon): 543 nM | GI50 (PC-3 prostate): 297 nM | TGI (PC-3 prostate): 2140 nM | GI50 (OVCAR-4 ovarian): 527 nM | TGI (OVCAR-4 ovarian): 2180 nM | GI50 (SR leukemia): < 10 nM | TGI (SR leukemia): 2170 nM | GI50 (786-0 renal): 29.1 nM | TGI (786-0 renal): 214 nM | GI50 (SK-MEL-2 melanoma): 1530 nM | TGI (SK-MEL-2 melanoma): 3270 nM | GI50 (UACC-62 melanoma): 76.8 nM | TGI (UACC-62 melanoma): 1820 nM | GI50 (HT29 colon): 126 nM | TGI (HT29 colon): 1120 nM | GI50 (OVCAR-5 ovarian): 324 nM | TGI (OVCAR-5 ovarian): 1820 nM | GI50 (NCI-H226 lung): 1220 nM | TGI (NCI-H226 lung): 3260 nM | GI50 (NCI-H23 lung): 42.5 nM | TGI (NCI-H23 lung): 473 nM | GI50 (A549 NSCLC): 137 nM | TGI (A549 NSCLC): 1130 nM | GI50 (SK-MEL-28 melanoma): 1370 nM | TGI (SK-MEL-28 melanoma): 2890 nM | GI50 (SK-MEL-5 melanoma): 77.1 nM | TGI (SK-MEL-5 melanoma): 417 nM | GI50 (EKVX NSCLC): 1190 nM | TGI (EKVX NSCLC): 2570 nM | GI50 (U251 CNS): 10.3 nM | TGI (U251 CNS): 1220 nM | GI50 (UO-31 renal): < 10 nM | TGI (UO-31 renal): 205 nM | GI50 (HS 578T breast): 1930 nM | TGI (HS 578T breast): 4040 nM | GI50 (A498 renal): 679 nM | TGI (A498 renal): 2060 nM | GI50 (OVCAR-3 ovarian): 448 nM | TGI (OVCAR-3 ovarian): 1750 nM | GI50 (LOX IMVI melanoma): 14.4 nM | TGI (LOX IMVI melanoma): 1150 nM | GI50 (MDA-MB-231 breast): 1810 nM | TGI (MDA-MB-231 breast): 3430 nM | GI50 (TK-10 renal): 1270 nM | TGI (TK-10 renal): 2780 nM | GI50 (HOP-92 NSCLC): 96.9 nM | TGI (HOP-92 NSCLC): 1910 nM | GI50 (UACC-257 melanoma): 1190 nM | TGI (UACC-257 melanoma): 2440 nM | GI50 (HCC-2998 colon): 183 nM | TGI (HCC-2998 colon): 1400 nM | GI50 (MCF7 breast): < 10 nM | TGI (MCF7 breast): 271 nM | GI50 (DU-145 prostate): < 10.7 nM | TGI (DU-145 prostate): 213 nM | GI50 (MALME-3M melanoma): 574 nM | TGI (MALME-3M melanoma): 2370 nM | GI50 (KM12 colon): 532 nM | TGI (KM12 colon): 2100 nM | GI50 (OVCAR-8 ovarian): 16.8 nM | TGI (OVCAR-8 ovarian): 147 nM | GI50 (SF-295 CNS): 14.6 nM | TGI (SF-295 CNS): 1190 nM | GI50 (NCI-H522 lung): 13.4 nM | TGI (NCI-H522 lung): 1520 nM | GI50 (SF-268 CNS): 11.5 nM | TGI (SF-268 CNS): 1060 nM | GI50 (MDA-MB-435): 294 nM | TGI (MDA-MB-435): 1950 nM | GI50 (RXF 393 renal): 499 nM | TGI (RXF 393 renal): 1960 nM | GI50 (SN12C renal): 66.7 nM | TGI (SN12C renal): 1930 nM | GI50 (RPMI-8226 leukemia): 44.3 nM | TGI (RPMI-8226 leukemia): 302 nM | GI50 (HOP-62 NSCLC): < 10.8 nM | TGI (HOP-62 NSCLC): 1220 nM | GI50 (SW-620 colon): 51.6 nM | TGI (SW-620 colon): 1360 nM | GI50 (HCT-15 colon): 209 nM | TGI (HCT-15 colon): 1240 nM | GI50 (SNB-19 CNS): 34.6 nM | TGI (SNB-19 CNS): 1480 nM | GI50 (BT-549 breast): 473 nM | TGI (BT-549 breast): 1620 nM

COc1cc(/C=C2\CCCC3=C2N=C2SC(C)=CN2C3c2cc(OC)c(OC)c(OC)c2)cc(OC)c1OC (stereo unspecified)
GI50 (NCI/ADR-RES ovarian): 334 nM | TGI (NCI/ADR-RES ovarian): > 100000 nM | GI50 (CCRF-CEM leukemia): 615 nM | TGI (CCRF-CEM leukemia): 4140 nM | GI50 (SF-539 CNS): 3090 nM | TGI (SF-539 CNS): > 100000 nM | GI50 (CAKI-1 renal): 2550 nM | TGI (CAKI-1 renal): > 100000 nM | GI50 (HCT-116 colon): 692 nM | TGI (HCT-116 colon): 2010 nM | GI50 (PC-3 prostate): 2190 nM | TGI (PC-3 prostate): > 100000 nM | GI50 (SR leukemia): 399 nM | TGI (SR leukemia): 2010 nM | GI50 (MOLT-4 leukemia): 1770 nM | TGI (MOLT-4 leukemia): 6430 nM | GI50 (MDA-MB-231 breast): 2880 nM | TGI (MDA-MB-231 breast): > 100000 nM | GI50 (HOP-92 NSCLC): 1460 nM | TGI (HOP-92 NSCLC): 4270 nM | GI50 (MCF7 breast): 2980 nM | TGI (MCF7 breast): > 100000 nM | GI50 (DU-145 prostate): 2760 nM | TGI (DU-145 prostate): > 100000 nM | GI50 (OVCAR-8 ovarian): 385 nM | TGI (OVCAR-8 ovarian): 3090 nM | GI50 (T-47D breast): 3160 nM | TGI (T-47D breast): > 100000 nM | GI50 (SN12C renal): 2440 nM | TGI (SN12C renal): > 100000 nM | GI50 (RPMI-8226 leukemia): 391 nM | TGI (RPMI-8226 leukemia): 2110 nM | GI50 (HOP-62 NSCLC): 1890 nM | TGI (HOP-62 NSCLC): > 100000 nM
